The text below walks through data of patent US5015661A, “Chromanes and their pharmaceutical compositions and methods” (Hoffmann-La Roche Inc., priority 1989, dated 1991).

Structures are written as SMILES.

This experiment concerns the target superoxide-dependent, iron-promoted lipid peroxidation of native rat heart cardiac lipid liposomes. The experiment is described as follows: Lipid peroxidation inhibition (in vitro testing of antiperoxidative agents, ANTI-OX), hypoxanthine-xanthine oxidase-Fe3+.ADP, rat cardiac liposomes, MDA equivalents. The experiment is classed as biochemical. The settings on record: 60 min, 37° C., screened at 1.0 μM, IC50 determined if inhibition ≥ 50%, read-out: ANTI-OX IC-50. How it is done: The test system employs hypoxanthine-xanthine oxidase (XO)-Fe^3+. ADP as the free radical generator and purified, native rat-heart membrane phosphoglyceride in Hepes-KCl buffer, pH 7.4, as the substrate. Inhibition of superoxide-dependent, iron-promoted lipid peroxidation in the linear reaction phase (after 1 hour of reaction) is measured as the net formation of thiobarbituric acid (TBA)-reactive material. In this system, the TBA-reactive material, isolated by HPLC, is exclusively (>95%) malondialdehyde (MDA), a fragmentation end-product arising from fatty acyl hydroperoxides and cyclic endoperoxides. […]
a) Isolation and purification of Rat Cardiac Lipid
Conscious male Sprague-Dawley rats (~275g) maintained on a normal rodent diet were decapitated. The hearts were rapidly removed and perfused via the aorta with ice-cold 10 mM Hepes buffer, pH 7.4. The aorta and atria were removed, and the ventricular tissue was blotted and weighed (wet weight). The hearts were minced on ice with scissors and finally homogenized (100 mg tissue/ml ice-cold buffer) for 15 seconds (3×5 seconds) with a Tekmar Tissumizer at "maximal" setting. The homogenate was filtered through 4-ply cheesecloth, and homogenate lipids were extracted and purified by a modified Bligh-Dyer procedure (M.D. Marshall and M. Kates, Biochem. Biophys. Acta 260, 558 (1972). The cardiac lipids were stored in CHCl3 under nitrogen at -20° C. […]
b) Preparation of Cardiac Liposomes
Liposomes were prepared from extracted and purified, native rat heart cardiac lipid and were used as substrate for free-radical attack. Cardiac lipid (in CHCl3) was placed in a glass flask and evaporated to dryness under nitrogen at room temperature; the flask was gently rotated during evaporation to yield a thin, dry lipid film. The lipid was taken up in 10 mM Hepes-0.145M KCl, pH 7.4, and was resuspended by indirect an aerobic sonification for 15 minutes at room temperature. The liposome suspension was used immediately. […]
c) preparation of Fe^3+ -ADP Chelate
A chelate was formed in Hepes-KCl buffer between Fe^3+ (1.0mM FeCl3, final concentration) and ADP (10mM, final concentration) at pH 7.4 with stirring at room temperature. Chelation was allowed to proceed for 90 minutes prior to use. The chelate was prepared fresh for each days experiments to ensure iron solubility, effective chelation, and valence state. […]
d) Thiobarbituric Acid Reaction or Determination of Malondialdehvde Equivalents Malondialdehyde (MDA) equivalents were measured as thiobarbituric acid (TBA)-reactive material by the following modification of published methods. The reaction mixture. prepared fresh daily, contained water: BHT ([…] BHT in absolute ethanol): TBA (1.5% TBA in 0.2M Tris, pH 7.0) in the volume ratio 1:1:5. To each 1.0 ml of peroxidation reaction assayed (see below), 0.35 ml reaction mixture was added. After thorough mixing, the tubes were incubated in an 80° C. shaking water bath for 30 minutes. After this time, the tubes were plunged into an ice water bath, and the reaction was immediately stopped with 0.5 ml ice-cold 91% TCA followed by 2.0 ml CHCl3 After centrifugation for 30 minutes at 2000 rpm in a Sorval HL-8 rotor (4° C.), the absorbance of the washed, pink upper phase was read at 532 nm. A standard curve (0.8-40.0 nmol MDA) was run with every assay. For each curve, MDA was freshly prepared by acidification of 1,1,3,3 -tetraethoxypropane with 75% TCA-2.3N HCl (0.15 ml acid mixture with 1.0 ml suitably diluted tetraethoxypropane). Computer-assisted regression analysis of the standard curve was used to quantify the molar amounts of MDA equivalents in the experimental samples. […]
e) Lipid peroxidation Reaction
Cardiac liposomes were subjected to superoxidedependent. iron-promoted peroxidation in glass vessels to avoid the well-known antioxidant effects of many common polymerizing agents used to fabricate plastic labware. […]
With `COc1cc(CO)cc2cc(C3(C)CCc4c(C)c(O)c(C)c(C)c4O3)oc12` (racemic) [Example 55, rac-2-(3,4-Dihydro-6-hydroxy-2,5,7,8-tetramethyl-2H-1-benzopyran-2-yl)-7-methoxybenzofuran-5-methanol], the IC50 stood at 850 nM.

On to `Cc1c(C)c2c(c(C)c1O)CCC(C)(CCc1cccs1)O2` (racemic) [Example 57, rac-3,4-Dihydro-2,5,7,8-tetramethyl-2-[2-(2-thienyl)ethyl]-2H-1-benzo-pyran-6-ol], for which the IC50 is over 1000 nM.

With `Cc1c(C)c2c(c(C)c1O)CCC(C)(CCc1ccccn1)O2` (racemic) [Example 58, rac-3,4-Dihydro-2,5,7,8-tetramethyl-2-[2-(2-pyridinyl)ethyl]-2H-1-benzopyran-6-ol], the IC50 was 700 nM.

`Cc1c(C)c2c(c(C)c1O)CCC(C)(CCc1cccnc1)O2` (racemic) [Example 59, rac-3,4-Dihydro-2,5,7,8-tetramethyl-2-[2-(3-pyridinyl)ethyl]-2H-1-benzopyran-6-ol]: the IC50 was 500 nM.

Turning to `COc1ccc(CCC2(C)CCc3c(C)c(O)c(C)c(C)c3O2)cc1OC(C)=O` (racemic) [Example 60, rac-2-{2-[3-(Acetyloxy)-4-methoxyphenyl]ethyl}-3,4-dihydro-2,5,7,8-tetramethyl-2H-1-benzopyran-6ol], the IC50 is over 1000 nM.

For the compound `Cc1c(C)c2c(c(C)c1O)CCC(C)(CCc1ccc(O)c(O)c1)O2` (racemic) [Example 61, rac-4-[2-(3,4-Dihydro-6-hydroxy-2,5,7,8-tetramethyl-2H-1-benzopyran-2-yl)ethyl]-1,2-benzenediol], the IC50 is over 1000 nM.

For the compound `COc1cccc(CCC2(C)CCc3c(C)c(O)c(C)c(C)c3O2)c1` (racemic) [Example 62, rac-3,4-Dihydro-2-[2-(3-methoxyphenyl)ethyl]-2,5,7,8-tetramethyl-2H-1-benzopyran-6-ol], the IC50 is over 1000 nM.

With `COC(=O)c1cc(CCC2(C)CCc3c(C)c(O)c(C)c(C)c3O2)ccc1O` (racemic) [Example 63, rac-5-[2-(3,4-Dihydro-6-hydroxy-2,5,7,8-tetramethyl-2H-1-benzopyran-2-yl)ethyl]-2-hydroxybenzoic acid methyl ester], the IC50 was over 1000 nM.

`Cc1c(C)c2c(c(C)c1O)CCC(C)(CCc1ccc(-c3cccnc3)cc1)O2` (racemic) [Example 64, rac-3,4-Dihydro-2,5,7,8-tetramethyl-2-{2-[4-(3-pyridinyl)-phenyl]ethyl}-2H-1-benzopyran-6-ol]: the IC50 is over 1000 nM.

As for `Cc1c(C)c2c(c(C)c1O)CCC(C)(CCc1ccc(-c3ccccn3)s1)O2` (racemic) [Example 65, rac-3,4-Dihydro-2,5,7,8-tetramethyl-2-{2-[5-(2-pyridinyl)-2-thienyl]ethyl}-2H-1-benzopyran-6ol], the IC50 is over 1000 nM.

In the case of `CCCCc1ccc(CCC2(C)CCc3c(C)c(O)c(C)c(C)c3O2)s1` (racemic) [Example 66, rac-2-[2-(5-Butyl-2-thienyl)ethyl]-3,4-dihydro-2,5,7,8-tetramethyl-2H-1-benzopyran-6-ol], the IC50 is over 1000 nM.

`Cc1c(C)c2c(c(C)c1O)CC[C@](C)(C#Cc1cccs1)O2` [Example 5, (R)-3,4-Dihydro-2,5,7,8-tetramethyl-2-[(2-thienyl)ethynyl]-2H-1-benzopvran-6-ol]: the IC50 came to 800 nM.

In the case of `Cc1c(C)c2c(c(C)c1O)CC[C@@](C)(C#Cc1cccs1)O2` [Example 13, (S)-3,4-Dihydro-2,5,7,8-tetramethyl-2-[(2-thienyl)ethynyl]-2H-1-benzopyran-6-ol], the IC50 was over 1000 nM.

`Cc1c(C)c2c(c(C)c1O)CCC(C)(C#Cc1ccc3c(c1)N(C)C(=O)CO3)O2` (centres unmarked) [Example 48]: the IC50 amounted to 750 nM.
